From PubChem BioAssay (NCI)
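Growth conditions: 96-well plates. Treatment: test compound, 48 hours, 5 concentrations. Analysis: linear interpolation between bracketing concentrations; unreached endpoints set to highest concentration. GI50 = concentration required for 50% inhibition of growth. TGI is the concentration that stops growth completely.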

Columns and labels:
Assay in all cases: NCI-60 cell line screen, 48 h
[1] = system: MDA-MB-435
[2] = system: KM12 colon
[3] = system: NCI-H522 lung
[4] = system: SK-MEL-28 melanoma
[5] = system: HL-60(TB) leukemia
[6] = system: SF-295 CNS
[7] = system: NCI/ADR-RES ovarian
[8] = system: SK-MEL-5 melanoma
[9] = system: SK-MEL-2 melanoma
[10] = system: RPMI-8226 leukemia
[11] = system: A498 renal
[12] = system: T-47D breast
[13] = system: SF-539 CNS
[14] = system: HT29 colon
[15] = system: IGROV1 ovarian
[16] = system: 786-0 renal
[17] = system: SF-268 CNS
[18] = system: UACC-62 melanoma
[19] = system: HOP-62 NSCLC
[20] = system: CAKI-1 renal
[21] = system: PC-3 prostate
[22] = system: U251 CNS
[23] = system: NCI-H23 lung
[24] = system: HCT-15 colon
[25] = system: OVCAR-4 ovarian
[26] = system: SW-620 colon
[27] = system: RXF 393 renal
[28] = system: SR leukemia
[29] = system: K-562 leukemia

Cc1ccc2c(n1)C(=O)C(Cl)=C(Nc1cccc(C(C)C)c1)C2=O
GI50 [1]: 1.71 µM | TGI [1]: 3.16 µM | GI50 [2]: 4.94 µM | TGI [2]: 28.6 µM | GI50 [3]: 2.25 µM | TGI [3]: 5.6 µM | GI50 [4]: 2.4 µM | TGI [4]: 5.58 µM | GI50 [5]: 1.73 µM | TGI [5]: 6.41 µM | GI50 [6]: 3.5 µM | TGI [6]: 11.5 µM | GI50 [7]: 2.49 µM | TGI [7]: 9.13 µM | GI50 [8]: 1.67 µM | TGI [8]: 3.06 µM | GI50 [9]: 3.72 µM | TGI [9]: 12.8 µM | GI50 [10]: 1.5 µM | TGI [10]: 5.18 µM | GI50 [11]: 6.56 µM | TGI [11]: 19.9 µM | GI50 [12]: 1.61 µM | TGI [12]: 4.15 µM | GI50 [13]: 1.71 µM | TGI [13]: 3.15 µM | GI50 [14]: 3.84 µM | TGI [14]: 31.4 µM | GI50 [15]: 1.56 µM | TGI [15]: 3.1 µM | GI50 [16]: 2.18 µM | TGI [16]: 5.44 µM | GI50 [17]: 3.17 µM | TGI [17]: 34.6 µM | GI50 [18]: 2.05 µM | TGI [18]: 4.64 µM | GI50 [19]: 2.7 µM | TGI [19]: 10.8 µM | GI50 [20]: 1.88 µM | TGI [20]: 6.22 µM | GI50 [21]: 2.17 µM | TGI [21]: 16.3 µM | GI50 [22]: 2.94 µM | TGI [22]: 11.1 µM | GI50 [23]: 1.58 µM | TGI [23]: 4.55 µM | GI50 [24]: 1.43 µM | TGI [24]: 3.36 µM | GI50 [25]: 1.35 µM | TGI [25]: 2.64 µM | GI50 [26]: 1.94 µM | TGI [26]: 4.03 µM | GI50 [27]: 1.29 µM | TGI [27]: 2.56 µM | GI50 [28]: 1.63 µM | TGI [28]: > 100 µM | GI50 [29]: 2.47 µM
